Assay in all cases: Bliss interaction score (quartile over a dose matrix) (fitness difference); higher = more antagonism (negative = synergy)
Experiment [1] relates to S. aureus Newman. In outline: (§1)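 The Bliss score is observed minus expected fitness under the product model, reported as quartiles over technical, biological and donor/recipient replicates. Fitness is the OD595 at entry into stationary phase divided by the plate's robust no-drug mean and capped at 1. Single-drug fitness was inferred from combination data.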
The subject of experiment [2] is B. subtilis 168. In short, it runs like this:
as §1

Experiment [3] relates to S. pneumoniae D39V. In short, it runs like this: as §1
Experiment [4] concerns S. aureus DSM 20231. In outline:
as §1

For twelve molecules, Bliss interaction score results are on record in the supplement of paper PMC10627819.
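Further: first quartile when negative (synergy) and third quartile when positive (antagonism).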

For `O=C(N[C@H](CO)[C@H](O)c1ccc([N+](=O)[O-])cc1)C(Cl)Cl` [Chloramphenicol] + C[C@H]1c2cccc(O)c2C(=O)C2=C(O)[C@]3(O)C(=O)C(C(N)=O)=C(O)[C@@H](N(C)C)[C@@H]3[C@@H](O)[C@@H]21 [Doxycycline], the Bliss interaction score was 0.0197 in experiment [1], -0.0915 in experiment [2], -0.06 in experiment [3] and 0.0395 in experiment [4].

For the molecule `O=C(N[C@H](CO)[C@H](O)c1ccc([N+](=O)[O-])cc1)C(Cl)Cl` [Chloramphenicol] + Clc1ccc(COC(Cn2ccnc2)c2ccc(Cl)cc2Cl)c(Cl)c1 [Miconazole], the Bliss interaction score in experiment [1] turned out to be 0.0868; in experiment [2], 0.0615; in experiment [3], 0.0799; in experiment [4], 0.0813.

`O=C(N[C@H](CO)[C@H](O)c1ccc([N+](=O)[O-])cc1)C(Cl)Cl` [Chloramphenicol] + N[C@@H]1CONC1=O [CycloserineD]: the Bliss interaction score in experiment [1] is -0.144; in experiment [2], 0.0478; in experiment [3], 0.141; in experiment [4], -0.168.

For `O=C(N[C@H](CO)[C@H](O)c1ccc([N+](=O)[O-])cc1)C(Cl)Cl` [Chloramphenicol] + O=C(O)[C@H]1/C(=C/CO)O[C@@H]2CC(=O)N21 [Clavulanic], the Bliss interaction score in experiment [1] is 0.202; in experiment [2], 0.0981; in experiment [3] it was -0.0693; in experiment [4] it was -0.265.

For the molecule `O=C(N[C@H](CO)[C@H](O)c1ccc([N+](=O)[O-])cc1)C(Cl)Cl` [Chloramphenicol] + Oc1cc(Cl)ccc1Oc1ccc(Cl)cc1Cl [Triclosan], the Bliss interaction score in experiment [1] was 0.0302; in experiment [2] it was -0.0443; in experiment [3] it was 0.0444; in experiment [4], -0.0764.

Consider `CC[C@H]1OC(=O)[C@H](C)[C@@H](O[C@H]2C[C@@](C)(OC)[C@@H](O)[C@H](C)O2)[C@H](C)[C@@H](O[C@@H]2O[C@H](C)C[C@H](N(C)C)[C@H]2O)[C@](C)(OC)C[C@@H](C)C(=O)[C@H](C)[C@@H](O)[C@]1(C)O` [Clarithromycin] + CC1(C)S[C@@H]2[C@H](NC(=O)Cc3ccccc3)C(=O)N2[C@H]1C(=O)O [PenicillinG], for which the Bliss interaction score in experiment [1] is -0.0938; in experiment [2] it was 0.0431; in experiment [3], -0.0413; in experiment [4], -0.0458.

In the case of `CC[C@H]1OC(=O)[C@H](C)[C@@H](O[C@H]2C[C@@](C)(OC)[C@@H](O)[C@H](C)O2)[C@H](C)[C@@H](O[C@@H]2O[C@H](C)C[C@H](N(C)C)[C@H]2O)[C@](C)(OC)C[C@@H](C)C(=O)[C@H](C)[C@@H](O)[C@]1(C)O` [Clarithromycin] + CC(=O)O[C@H]1C[C@@]2(C)[C@@H](C[C@@H](O)[C@H]3[C@@]4(C)CC[C@@H](O)[C@@H](C)[C@@H]4CC[C@@]32C)/C1=C(\CCC=C(C)C)C(=O)O [Fusidic acid], the Bliss interaction score in experiment [1] is 0.0229; in experiment [2], -0.059; in experiment [3], -0.0728; in experiment [4], 0.0257.

As to `CC[C@H]1OC(=O)[C@H](C)[C@@H](O[C@H]2C[C@@](C)(OC)[C@@H](O)[C@H](C)O2)[C@H](C)[C@@H](O[C@@H]2O[C@H](C)C[C@H](N(C)C)[C@H]2O)[C@](C)(OC)C[C@@H](C)C(=O)[C@H](C)[C@@H](O)[C@]1(C)O` [Clarithromycin] + CCCCCCCCCC(=O)N[C@@H]1[C@H]([C@@H]([C@H](O[C@H]1OC2=C3C=C4C=C2OC5=C(C=C(C=C5)[C@H]([C@H]6C(=O)N[C@@H](C7=C(C(=CC(=C7)O)OC8[C@H]([C@H]([C@@H]([C@H](O8)CO)O)O)O)C9=C(C=CC(=C9)[C@H](C(=O)N6)NC(=O)[C@@H]4NC(=O)[C@@H]1C2=CC(=CC(=C2)OC2=C(C=CC(=C2)[C@H](C(=O)N[C@H](CC2=CC(=C(O3)C=C2)Cl)C(=O)N1)N)O)O)O)C(=O)O)O[C@H]1[C@@H]([C@H]([C@@H]([C@H](O1)CO)O)O)NC(=O)C)Cl)CO)O)O [Teicoplanin], the Bliss interaction score in experiment [1] (main component drawn) is 0.173; in experiment [2] (main component drawn), 0.0401; in experiment [3] (main component drawn) it was -0.0509; in experiment [4] (main component drawn), 0.099.

For `CC[C@H]1OC(=O)[C@H](C)[C@@H](O[C@H]2C[C@@](C)(OC)[C@@H](O)[C@H](C)O2)[C@H](C)[C@@H](O[C@@H]2O[C@H](C)C[C@H](N(C)C)[C@H]2O)[C@](C)(OC)C[C@@H](C)C(=O)[C@H](C)[C@@H](O)[C@]1(C)O` [Clarithromycin] + CCC[C@@H]1C[C@@H](C(=O)N[C@@H]([C@H]2O[C@H](SC)[C@H](O)[C@@H](O)[C@H]2O)[C@H](C)Cl)N(C)C1 [Clindamycin], the Bliss interaction score is -0.066 in experiment [1], 0.0458 in experiment [2], 0.0678 in experiment [3] and -0.0458 in experiment [4].

Turning to `CC[C@H]1OC(=O)[C@H](C)[C@@H](O[C@H]2C[C@@](C)(OC)[C@@H](O)[C@H](C)O2)[C@H](C)[C@@H](O[C@@H]2O[C@H](C)C[C@H](N(C)C)[C@H]2O)[C@](C)(OC)C[C@@H](C)C(=O)[C@H](C)[C@@H](O)[C@]1(C)O` [Clarithromycin] + CC[C@H]1OC(=O)[C@H](C)C(=O)[C@H](C)[C@@H](O[C@@H]2O[C@H](C)C[C@H](N(C)C)[C@H]2O)[C@](C)(OC)C[C@@H](C)C(=O)[C@H](C)[C@H]2N(CCCCn3cnc(-c4cccnc4)c3)C(=O)O[C@]12C [Telithromycin], the Bliss interaction score was -0.0507 in experiment [1], 0.0309 in experiment [2], 0.056 in experiment [3] and -0.0599 in experiment [4].

Turning to `CC[C@H]1OC(=O)[C@H](C)[C@@H](O[C@H]2C[C@@](C)(OC)[C@@H](O)[C@H](C)O2)[C@H](C)[C@@H](O[C@@H]2O[C@H](C)C[C@H](N(C)C)[C@H]2O)[C@](C)(OC)C[C@@H](C)C(=O)[C@H](C)[C@@H](O)[C@]1(C)O` [Clarithromycin] + CC[C@H]1OC(=O)[C@H](C)[C@@H](O[C@H]2C[C@@](C)(OC)[C@@H](O)[C@H](C)O2)[C@H](C)[C@@H](O[C@@H]2O[C@H](C)C[C@H](N(C)C)[C@H]2O)[C@](C)(O)C[C@@H](C)C(=O)[C@H](C)[C@@H](O)[C@]1(C)O [Erythromycin], the Bliss interaction score in experiment [1] is -0.0296; in experiment [2] it was -0.0372; in experiment [3] it was 0.0551; in experiment [4], 0.0159.

Take `CC[C@H]1OC(=O)[C@H](C)[C@@H](O[C@H]2C[C@@](C)(OC)[C@@H](O)[C@H](C)O2)[C@H](C)[C@@H](O[C@@H]2O[C@H](C)C[C@H](N(C)C)[C@H]2O)[C@](C)(OC)C[C@@H](C)C(=O)[C@H](C)[C@@H](O)[C@]1(C)O` [Clarithromycin] + CN(C)[C@@H]1C(O)=C(C(N)=O)C(=O)[C@@]2(O)C(O)=C3C(=O)c4c(O)ccc(Cl)c4[C@@](C)(O)[C@H]3C[C@@H]12 [Clortetracycline]: the Bliss interaction score in experiment [1] was -0.094; in experiment [2], -0.392; in experiment [3], 0.0391; in experiment [4], -0.28.
